For orientation: melting point means the temperature of the solid-liquid transition. What is called IC50 is the concentration that inhibits the measured activity by half.

Among the data in paper PMC8200971, “Design, Synthesis, Biological Evaluation and Silico Prediction of Novel Sinomenine Derivatives” (Molecules, 2021) are melting point, IC50 and inhibition values, retold here.

Like-named read-outs stand apart in the source and are kept apart here.

Data set [1] relates to MCF-7 (human breast cancer cell lines). The data set is described as follows: CCK8 cytotoxicity assay. As to conditions: for IC50: read-out: IC50 MCF-7; for inhibition at 2.5 µM / inhibition at 25 µM: read-out: growth inhibition ratio (mean ± SD). The class given is cell-based. As to the method:
(§1) Cytotoxicity screens were performed to assess the in vitro anticancer activity of the synthesized sinomenine derivatives 6a–6l on the various cancer cell lines MCF-7, Hela, SW480, and A549, as well as on Hek293 as a normal cell line, at doses of 2.5 and 25 μM. The obtained inhibition ratios data were used to construct a heat map (Figure 3, Tables S1 and S2) in order to select compounds that exert cancer cell line-specific cytotoxicity. Then, the IC50 values of the promising compound were determined. Cisplatin was used as a reference standard. The antiproliferative activity was based on the evaluation of the percent viability using the CCK8 assay, which is a rapid and sensitive method for determining the number of viable cells in culture. In the presence of electronic coupling reagents, WST-8 can be reduced by a dehydrogenase in the mitochondria to produce a highly water-soluble orange-yellow formazan product. Its color is proportional to the proliferation of the number of viable cells and is related to cytotoxicity. Using a microplate reader to measure the OD value can indirectly reflect the number of living cells at 450 nm wavelength.
(§2) To understand structure–function relationships, these selected compounds were subjected to subsequent analyses. All six compounds (6a and 6c–6g) were further examined to determine their IC50 concentrations on the previously mentioned cell lines, and their efficacy was compared to the reference drug cisplatin. For this, six compounds and cisplatin were evaluated on Hela, MCF-7, SW480, and A549, and on noncancerous Hek293 cell lines at various concentrations for 60 h. IC50 values were calculated (Table 2).
(§3) The MCF-7 (human breast cancer cell lines), Hela (human cervical cancer cell lines), SW480 (human colon adenocarcinoma cell lines), A549 (human lung adenocarcinoma cell lines) and nontoxic normal cells Hek293 (human embryonic kidney cell lines) cells were used to measure the cytotoxicity of the 6a–6l. They were obtained from the Beijing Normal University (Beijing, China). The test cell lines were cultured in DMEM, IMDM, F12 and DMEM nutrient medium containing 10% heat-inactivated fetal bovine serum, […] and 100 units/mL penicillin in a humified, 5% (v/v) CO2 atmosphere at 37 °C.
(§4) Cell viability was estimated using the CCK8 assay. Tumor cells ([…]) viz. MCF-7, Hela, SW480, A549 and nontoxic normal cells Hek293 were seeded in medium containing Corning® 96-well tissue culture plates at confluences of […], respectively, in Incucyte ZOOM. Fresh medium (100 μL) containing different concentrations of the test sample was added after 12 h of seeding. The microtiter plates were incubated at 37 °C in a humidified incubator with 5% CO2 for 60 h. Triplicates from each concentration were used. Negative control cells were incubated without sample and cisplatin as a positive control. At the end of treatment, the numbers of viable cells were determined by the CCK8 test. In brief, the media was removed from the 96 well plates and replaced with 100 μL of fresh culture medium with 10% CCK8 solution added to each well including the untreated controls. The 96 well plates were then incubated at 37 °C and 5% CO2 for 1–4 h. Then, the absorbance was measured at 450 nm using a BMG LABTECH®-POLAR star Omega microplate reader (Ortenberg, Germany) to determine the number of viable cells, and the percentage of viability was calculated as ((ODt- ODb/ODc- ODb)) × 100%, where ODt is the mean optical density of wells treated with the tested sample, ODc is the mean optical density of wells treated with DMSO and ODb is the mean optical density of PBS wells without cells. The relation between surviving cells and drug concentrations were plotted to get the survival curve of each tumor cell line after treatment with the specified compound. […]
Background: Tetrazolium dyes change colour on reduction, which living cells bring about.

Data set [2] relates to SW480 (human colon adenocarcinoma cell lines). In words: CCK8 cytotoxicity assay. The class given is cell-based. As to conditions: for IC50: read-out: IC50 SW480; for inhibition at 2.5 µM / inhibition at 25 µM: read-out: growth inhibition ratio (mean ± SD). How it is done: as §1, §2, §3, §4
For data set [3], the system named is Hela (human cervical cancer cell lines). The data set is described as follows: CCK8 cytotoxicity assay. Format: cell-based. As to conditions: for IC50: read-out: IC50 Hela; for inhibition at 2.5 µM / inhibition at 25 µM: read-out: growth inhibition ratio (mean ± SD). As to the method:
as §1, §2, §3, §4

Data set [4] has as its system A549 (human lung adenocarcinoma cell lines). The data set is described as follows: CCK8 cytotoxicity assay. Format: cell-based. As to conditions: for IC50: read-out: IC50 A549; for inhibition at 2.5 µM / inhibition at 25 µM: read-out: growth inhibition ratio (mean ± SD). How it is done: as §1, §2, §3, §4
The test system of data set [5] is Hek293 (human embryonic kidney cell lines). The data set is described as follows: CCK8 cytotoxicity assay, normal cells. The class given is cell-based. The note with it: for IC50: read-out: IC50 Hek293; for inhibition at 2.5 µM / inhibition at 25 µM: read-out: growth inhibition ratio (mean ± SD). As to the method: as §1, §2, §3, §4
The mark [6] stands for this setting: CCK8, 60 h, mean ± SD of three independent experiments.

With `COC1=C[C@@H]2[C@@H]3Cc4c(CN5CCCCC5)cc(OC)c(OC(=O)Cc5ccc(Cl)cc5)c4[C@]2(CCN3C)CC1=O` [5a, (4bR,8aS,9S)-3,7-dimethoxy-11-methyl-6-oxo-1-(piperidin-1-ylmethyl)-6,8a,9,10-tetrahydro-5H-9,4b-(epiminoethano)phenanthren-4-yl 2-(4-chlorophenyl)acetate], the melting point lay within 105 to 107 °C.
Still for that read-out and setting: for `COC1=C[C@@H]2[C@@H]3Cc4c(CN5CCCCC5)cc(OC)c(OC(=O)Cc5ccccc5)c4[C@]2(CCN3C)CC1=O` [5b, (4bR,8aS,9S)-3,7-dimethoxy-11-methyl-6-oxo-1-(piperidin-1-ylmethyl)-6,8a,9,10-tetrahydro-5H-9,4b-(epiminoethano)phenanthren-4-yl 2-phenylacetate] the value was 192 to 194 °C; for `COC1=C[C@@H]2[C@@H]3Cc4c(CN5CCCCC5)cc(OC)c(OC(=O)Cc5ccc(OC)c(OC)c5)c4[C@]2(CCN3C)CC1=O` [5c, (4bR,8aS,9S)-3,7-dimethoxy-11-methyl-6-oxo-1-(piperidin-1-ylmethyl)-6,8a,9,10-tetrahydro-5H-9,4b-(epiminoethano)phenanthren-4-yl 2-(3,4-dimethoxyphenyl)acetate], 151 to 154 °C; for `COC1=C[C@@H]2[C@@H]3Cc4c(CN5CCCCC5)cc(OC)c(OC(=O)Cc5ccccc5C)c4[C@]2(CCN3C)CC1=O` [5d, (4bR,8aS,9S)-3,7-dimethoxy-11-methyl-6-oxo-1-(piperidin-1-ylmethyl)-6,8a,9,10-tetrahydro-5H-9,4b-(epiminoethano)phenanthren-4-yl 2-(o-tolyl)acetate], 177 to 178 °C.
With `COC1=C[C@@H]2[C@@H]3Cc4c(CN5CCCCC5)cc(OC)c(OC(=O)CCc5ccccc5)c4[C@]2(CCN3C)CC1=O` [5e, (4bR,8aS,9S)-3,7-dimethoxy-11-methyl-6-oxo-1-(piperidin-1-ylmethyl)-6,8a,9,10-tetrahydro-5H-9,4b-(epiminoethano)phenanthren-4-yl 3-phenylpropanoate], the melting point was in the range of 181 to 185 °C.
On the same count and under the same terms, for `COC1=C[C@@H]2[C@@H]3Cc4c(CN5CCCCC5)cc(OC)c(OC(=O)Cc5ccccc5Cl)c4[C@]2(CCN3C)CC1=O` [5f, (4bR,8aS,9S)-3,7-dimethoxy-11-methyl-6-oxo-1-(piperidin-1-ylmethyl)-6,8a,9,10-tetrahydro-5H-9,4b-(epiminoethano)phenanthren-4-yl 2-(2-chlorophenyl)acetate] the value was 188 to 190 °C; for `COC1=C[C@@H]2[C@@H]3Cc4c(CN5CCCCC5)cc(OC)c(OC(=O)Cc5ccc(OC)cc5)c4[C@]2(CCN3C)CC1=O` [5h, (4bR,8aS,9S)-3,7-dimethoxy-11-methyl-6-oxo-1-(piperidin-1-ylmethyl)-6,8a,9,10-tetrahydro-5H-9,4b-(epiminoethano)phenanthren-4-yl 2-(4-methoxyphenyl)acetate], 121 to 122 °C; for `COC1=C[C@@H]2[C@@H]3Cc4c(CN5CCCCC5)cc(OC)c(OC(=O)Cc5ccc(F)cc5)c4[C@]2(CCN3C)CC1=O` [5k, (4bR,8aS,9S)-3,7-dimethoxy-11-methyl-6-oxo-1-(piperidin-1-ylmethyl)-6,8a,9,10-tetrahydro-5H-9,4b-(epiminoethano)phenanthren-4-yl 2-(4-fluorophenyl)acetate], 128 to 130 °C.
Consider `COC1=C[C@@H]2[C@@H]3Cc4c(CN5CCCC5)cc(OC)c(OC(=O)Cc5ccc(Cl)cc5)c4[C@]2(CCN3C)CC1=O` [6a, (4bR,8aS,9S)-3,7-dimethoxy-11-methyl-6-oxo-1-(pyrrolidin-1-ylmethyl)-6,8a,9,10-tetrahydro-5H-9,4b-(epiminoethano)phenanthren-4-yl 2-(4-chlorophenyl)acetate], for which the melting point is 162 to 165 °C. In data set [1] (Homo sapiens, MCF7, 60 h), the IC50 was found to be 14.3 ± 0.83 µM, the inhibition at 2.5 µM was determined as 0% and the inhibition at 25 µM is 85.3 ± 1.62%. Moreover, in data set [2] (Homo sapiens, SW480, 60 h), the IC50 worked out at 14.94 ± 0.06 µM, the inhibition at 2.5 µM worked out at 12.9 ± 6.52% and the inhibition at 25 µM stood at 82.3 ± 4.36%. In data set [3] (Homo sapiens, HeLa, 60 h), the IC50 worked out at 11.5 ± 1.04 µM, the inhibition at 2.5 µM was found to be 7.81 ± 5.42% and the inhibition at 25 µM was determined as 88.49 ± 0.67%. Moreover, in data set [4] (Homo sapiens, A549, 60 h), the half-inhibitory concentration (IC50) is above 25 µM, the inhibition at 2.5 µM came to 3.41 ± 0.82% and the inhibition at 25 µM was determined as 37.4 ± 0.39%. Further, in data set [5] (Homo sapiens, HEK293, 60 h), the IC50 was 13 ± 0.62 µM, the inhibition at 2.5 µM stood at 17.9 ± 1.86% and the inhibition at 25 µM is 61.1 ± 4.71%.
The compound `COC1=C[C@@H]2[C@@H]3Cc4c(CN5CCCC5)cc(OC)c(OC(=O)Cc5ccc(OC)c(OC)c5)c4[C@]2(CCN3C)CC1=O` [6b, (4bR,8aS,9S)-3,7-dimethoxy-11-methyl-6-oxo-1-(pyrrolidin-1-ylmethyl)-6,8a,9,10-tetrahydro-5H-9,4b-(epiminoethano)phenanthren-4-yl 2-(3,4-dimethoxyphenyl)acetate] returned a melting point of 80 to 83 °C. Further, in data set [1] (Homo sapiens, MCF7, 60 h), the inhibition at 2.5 µM amounted to 3.63 ± 3.16% and the inhibition at 25 µM was determined as 2.7 ± 4.67%. Moreover, in data set [2] (Homo sapiens, SW480, 60 h), the inhibition at 2.5 µM was 22.9 ± 6.49% and the inhibition at 25 µM is 29.5 ± 11.2%. In data set [3] (Homo sapiens, HeLa, 60 h), the inhibition at 2.5 µM worked out at 2.03 ± 2.29% and the inhibition at 25 µM was found to be 11.5 ± 4.88%. In addition, in data set [4] (Homo sapiens, A549, 60 h), the inhibition at 2.5 µM is 0% and the inhibition at 25 µM worked out at 30.9 ± 0.32%. In data set [5] (Homo sapiens, HEK293, 60 h), the inhibition at 2.5 µM is 0.66 ± 1.14% and the inhibition at 25 µM came out at 45.9 ± 1.35%.
`COC1=C[C@@H]2[C@@H]3Cc4c(CN5CCCC5)cc(OC)c(OC(=O)Cc5ccccc5Cl)c4[C@]2(CCN3C)CC1=O` [6c, (4bR,8aS,9S)-3,7-dimethoxy-11-methyl-6-oxo-1-(pyrrolidin-1-ylmethyl)-6,8a,9,10-tetrahydro-5H-9,4b-(epiminoethano)phenanthren-4-yl 2-(2-chlorophenyl)acetate] yielded a melting point of 79 to 83 °C. Moreover, in data set [1] (Homo sapiens, MCF7, 60 h), the 50% inhibitory concentration (IC50) was above 25 µM, the inhibition at 2.5 µM came to 0% and the inhibition at 25 µM was found to be 42 ± 3.02%. Further, in data set [2] (Homo sapiens, SW480, 60 h), the IC50 was above 25 µM, the inhibition at 2.5 µM was found to be 28.3 ± 6.91% and the inhibition at 25 µM amounted to 58.4 ± 7.58%. For the same compound, in data set [3] (Homo sapiens, HeLa, 60 h), the IC50 was above 25 µM, the inhibition at 2.5 µM was found to be 3.05 ± 3.91% and the inhibition at 25 µM turned out to be 53.5 ± 2.45%. Besides, in data set [4] (Homo sapiens, A549, 60 h), the IC50 came to 18.7 ± 0.7 µM, the inhibition at 2.5 µM is 16.3 ± 0.63% and the inhibition at 25 µM stood at 49.4 ± 0.59%. Besides, in data set [5] (Homo sapiens, HEK293, 60 h), the IC50 turned out to be 6.52 ± 0.19 µM, the inhibition at 2.5 µM came out at 13.8 ± 2.27% and the inhibition at 25 µM stood at 54.6 ± 2.29%.
Take `N.N.[Cl][Pt][Cl]` [Cisplatin, reference compound]: the IC50 worked out at 3.45 ± 0.82 µM in data set [1] (setting [6]); 1.98 ± 0.15 µM in data set [2] (setting [6]); 4.57 ± 0.43 µM in data set [3] (setting [6]); 14.3 ± 0.7 µM in data set [4] (setting [6]); 3.19 ± 0.6 µM in data set [5] (normal cell line, CCK8, 60 h, mean ± SD of three independent experiments).
